{"source": "ChEMBL document CHEMBL4041547", "about": "“Novel Potentiators for Vancomycin in the Treatment of Biofilm-Related MRSA Infections via a Mix and Match Approach” (ACS Med Chem Lett, 2017)", "key": {"Staphylococcus aureus [1]": {"system": "Staphylococcus aureus", "assay": "Growth inhibition of methicillin-resistant Staphylococcus aureus Mu50"}, "[2]": {"target": "T1, Signal transduction protein TRAP (Staphylococcus aureus (strain Mu50 / ATCC 700699)) (UniProt Q7A2Q4)", "T1 sequence (whole entry)": "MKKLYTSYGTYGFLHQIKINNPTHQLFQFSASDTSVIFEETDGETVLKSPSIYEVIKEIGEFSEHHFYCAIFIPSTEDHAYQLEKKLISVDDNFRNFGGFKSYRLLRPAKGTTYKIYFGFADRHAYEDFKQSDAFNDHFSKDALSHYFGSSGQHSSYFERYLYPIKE", "assay": "Inhibition of methicillin-resistant Staphylococcus aureus Mu50 TRAP assessed as potentiation of vancomycin-induced antibiofilm activity by measuring vancomycin-mediated reduction in colony forming units at 25 uM pretreated for 4 hrs prior to vancomycin addition measured after 20 hrs (reference value: 30 +/- 14%)", "conditions": "Staphylococcus aureus subsp. aureus Mu50"}, "[3]": {"target": "T1, Signal transduction protein TRAP (Staphylococcus aureus (strain Mu50 / ATCC 700699))", "assay": "Inhibition of methicillin-resistant Staphylococcus aureus Mu50 TRAP assessed as potentiation of vancomycin-induced antibiofilm activity by measuring vancomycin-mediated reduction in colony forming units at 25 uM cotreated with vancomycin for 24 hrs (reference value: 30 +/- 14%)", "conditions": "Staphylococcus aureus subsp. aureus Mu50"}, "Staphylococcus aureus [4]": {"system": "Staphylococcus aureus", "assay": "Antibiofilm activity against methicillin-resistant Staphylococcus aureus Mu50 at 100 uM", "format": "functional"}, "[5]": {"target": "T1, Signal transduction protein TRAP (Staphylococcus aureus (strain Mu50 / ATCC 700699))", "assay": "Inhibition of methicillin-resistant Staphylococcus aureus Mu50 TRAP assessed as reduction in vancomycin MIC at 100 uM", "conditions": "Staphylococcus aureus subsp. aureus Mu50"}, "Staphylococcus aureus [6]": {"system": "Staphylococcus aureus", "assay": "Antibiofilm activity against methicillin-resistant Staphylococcus aureus JE2 at 100 uM", "format": "functional"}, "Staphylococcus aureus [7]": {"system": "Staphylococcus aureus", "assay": "Inhibition of methicillin-resistant Staphylococcus aureus JE2 TRAP assessed as reduction in vancomycin MIC at 100 uM"}, "[8]": {"assay": "Drug metabolism assessed as UGT-mediated compound degradation in human liver microsomes at 5 uM using UDPGA as cofactor by UPLC-MS/MS analysis", "format": "ADME"}, "[9]": {"assay": "Drug metabolism assessed as CYP450-mediated compound degradation in human liver microsomes at 5 uM using NADPH as cofactor by UPLC-MS/MS analysis", "format": "ADME"}, "Plasma": {"system": "Plasma", "assay": "Metabolic stability in human plasma by UPLC-MS/MS analysis", "format": "ADME, cell-free"}}, "note": "Calls of active or inactive are those of the source. The calls are words filed in the database; no cut-off is given here."}
{"smiles": "O=C(NC[C@H]1OC[C@@](O)(CN2Cc3ccccc3C2=O)[C@@H]1O)c1ccccc1Cl", "values": [{"measurement": "MIC", "setting": "Staphylococcus aureus [1]", "value": "> 500", "unit": "µM"}, {"measurement": "inhibition", "setting": "[2]", "value": 92, "unit": "%"}, {"measurement": "inhibition", "setting": "[3]", "value": 73, "unit": "%"}]}
{"smiles": "O=C(NC[C@H]1OC[C@@](O)(CNCc2ccccc2)[C@@H]1O)c1ccccc1Cl", "values": [{"measurement": "MIC", "setting": "Staphylococcus aureus [1]", "value": "> 500", "unit": "µM"}, {"measurement": "inhibition", "setting": "[2]", "value": 94, "unit": "%"}, {"measurement": "inhibition", "setting": "[3]", "value": 89, "unit": "%"}]}
{"smiles": "O=C(NC[C@H]1OC[C@@](O)(CNC(=O)C2CCCCC2)[C@@H]1O)c1ccccc1Cl", "values": [{"measurement": "MIC", "setting": "Staphylococcus aureus [1]", "value": "> 500", "unit": "µM"}, {"measurement": "inhibition", "setting": "[2]", "value": 85, "unit": "%"}, {"measurement": "inhibition", "setting": "[3]", "value": 55, "unit": "%"}]}
{"smiles": "O=C(NC[C@]1(O)CO[C@H](CNC(=O)c2ccccc2Cl)[C@H]1O)c1cncnc1", "values": [{"measurement": "MIC", "setting": "Staphylococcus aureus [1]", "value": "> 500", "unit": "µM"}, {"measurement": "inhibition", "setting": "[2]", "value": 36, "unit": "%"}, {"measurement": "inhibition", "setting": "[3]", "value": 35, "unit": "%"}]}
{"smiles": "O=C(NC[C@H]1OC[C@@](O)(CNS(=O)(=O)c2ccccc2)[C@@H]1O)c1ccccc1Cl", "values": [{"measurement": "MIC", "setting": "Staphylococcus aureus [1]", "value": "> 500", "unit": "µM"}, {"measurement": "inhibition", "setting": "[2]", "value": 65, "unit": "%"}, {"measurement": "inhibition", "setting": "[3]", "value": 44, "unit": "%"}]}
{"smiles": "O=C(CCc1ccccc1)NC[C@]1(O)CO[C@H](CNC(=O)c2ccccc2Cl)[C@H]1O", "values": [{"measurement": "MIC", "setting": "Staphylococcus aureus [1]", "value": "> 500", "unit": "µM"}, {"measurement": "inhibition", "setting": "[2]", "value": 35, "unit": "%"}, {"measurement": "inhibition", "setting": "[3]", "value": 18, "unit": "%"}]}
{"smiles": "CC(=O)NC[C@]1(O)CO[C@H](CNC(=O)c2ccccc2Cl)[C@H]1O", "values": [{"measurement": "MIC", "setting": "Staphylococcus aureus [1]", "value": "> 500", "unit": "µM"}, {"measurement": "inhibition", "setting": "[2]", "value": 70, "unit": "%"}, {"measurement": "inhibition", "setting": "[3]", "value": 82, "unit": "%"}]}
{"smiles": "O=C(NC[C@]1(O)CO[C@H](CN2C(=O)c3ccccc3C2=O)[C@H]1O)c1ccnnc1", "values": [{"measurement": "Activity", "setting": "Staphylococcus aureus [4]", "value": "inactive"}, {"measurement": "inhibition", "setting": "[5]", "value": "inactive"}, {"measurement": "Activity", "setting": "Staphylococcus aureus [6]", "value": "inactive"}, {"measurement": "inhibition", "setting": "Staphylococcus aureus [7]", "value": "inactive"}]}
{"smiles": "O=C(NC[C@H]1OC[C@H](O)[C@@H]1O)c1ccccc1Cl", "values": [{"measurement": "MIC", "setting": "Staphylococcus aureus [1]", "value": "> 500", "unit": "µM"}, {"measurement": "inhibition", "setting": "[2]", "value": 80, "unit": "%"}, {"measurement": "inhibition", "setting": "[3]", "value": 81, "unit": "%"}]}
{"smiles": "O=C(OC[C@H]1OC(O)[C@@](O)(COC(=O)c2cc(O)c(O)c(O)c2)[C@@H]1O)c1cc(O)c(O)c(O)c1", "note": "(some centres undefined) [HAMAMELITANNIN]", "values": [{"measurement": "MIC", "setting": "Staphylococcus aureus [1]", "value": "> 500", "unit": "µM"}, {"measurement": "inhibition", "setting": "[2]", "value": 35, "unit": "%"}, {"measurement": "inhibition", "setting": "[3]", "value": 31, "unit": "%"}]}
{"smiles": "CN[C@H](CC(C)C)C(=O)N[C@H]1C(=O)N[C@@H](CC(N)=O)C(=O)N[C@H]2C(=O)N[C@H]3C(=O)N[C@H](C(=O)N[C@H](C(=O)O)c4cc(O)cc(O)c4-c4cc3ccc4O)[C@H](O)c3ccc(c(Cl)c3)Oc3cc2cc(c3O[C@@H]2O[C@H](CO)[C@@H](O)[C@H](O)[C@H]2O[C@H]2C[C@](C)(N)[C@H](O)[C@H](C)O2)Oc2ccc(cc2Cl)[C@H]1O", "values": [{"measurement": "inhibition", "setting": "[2]", "value": 30, "unit": "%"}, {"measurement": "inhibition", "setting": "[3]", "value": 30, "unit": "%"}]}
{"smiles": "O=C(NC[C@]1(O)CO[C@H](CN2C(=O)c3ccccc3C2=O)[C@H]1O)c1ccccc1Cl", "values": [{"measurement": "Stability", "setting": "[8]", "value": "Stable"}, {"measurement": "Stability", "setting": "[9]", "value": "Unstable"}, {"measurement": "Stability", "setting": "Plasma", "value": "Stable"}, {"measurement": "Activity", "setting": "Staphylococcus aureus [4]", "value": "inactive"}, {"measurement": "inhibition", "setting": "[5]", "value": "inactive"}, {"measurement": "Activity", "setting": "Staphylococcus aureus [6]", "value": "inactive"}, {"measurement": "inhibition", "setting": "Staphylococcus aureus [7]", "value": "inactive"}]}
{"smiles": "COc1ccc(C(=O)NC[C@]2(O)CO[C@H](CNC(=O)c3ccccc3Cl)[C@H]2O)cc1", "values": [{"measurement": "MIC", "setting": "Staphylococcus aureus [1]", "value": "> 500", "unit": "µM"}, {"measurement": "inhibition", "setting": "[2]", "value": 34, "unit": "%"}, {"measurement": "inhibition", "setting": "[3]", "value": 43, "unit": "%"}]}
{"smiles": "O=C(NC[C@]1(O)CO[C@H](CNC(=O)c2ccccc2Cl)[C@H]1O)Nc1ccccc1", "values": [{"measurement": "MIC", "setting": "Staphylococcus aureus [1]", "value": "> 500", "unit": "µM"}, {"measurement": "inhibition", "setting": "[2]", "value": 67, "unit": "%"}, {"measurement": "inhibition", "setting": "[3]", "value": 58, "unit": "%"}]}
{"smiles": "[N-]=[N+]=NC[C@]1(O)CO[C@H](CNC(=O)c2ccccc2Cl)[C@H]1O", "values": [{"measurement": "MIC", "setting": "Staphylococcus aureus [1]", "value": "> 500", "unit": "µM"}, {"measurement": "inhibition", "setting": "[2]", "value": 87, "unit": "%"}, {"measurement": "inhibition", "setting": "[3]", "value": 88, "unit": "%"}]}
{"smiles": "Cc1ccc(C(=O)NC[C@]2(O)CO[C@H](CNC(=O)c3ccccc3Cl)[C@H]2O)cc1", "values": [{"measurement": "MIC", "setting": "Staphylococcus aureus [1]", "value": "> 500", "unit": "µM"}, {"measurement": "inhibition", "setting": "[2]", "value": 48, "unit": "%"}, {"measurement": "inhibition", "setting": "[3]", "value": 58, "unit": "%"}]}
{"smiles": "O=C(NC[C@]1(O)CO[C@H](CNC(=O)c2ccccc2Cl)[C@H]1O)c1ccccc1F", "values": [{"measurement": "MIC", "setting": "Staphylococcus aureus [1]", "value": "> 500", "unit": "µM"}, {"measurement": "inhibition", "setting": "[2]", "value": 38, "unit": "%"}, {"measurement": "inhibition", "setting": "[3]", "value": 56, "unit": "%"}]}
{"smiles": "O=C(NC[C@]1(O)CO[C@H](CNC(=O)c2ccccc2Cl)[C@H]1O)c1ccoc1", "values": [{"measurement": "MIC", "setting": "Staphylococcus aureus [1]", "value": "> 500", "unit": "µM"}, {"measurement": "inhibition", "setting": "[2]", "value": 58, "unit": "%"}, {"measurement": "inhibition", "setting": "[3]", "value": 50, "unit": "%"}]}
{"smiles": "O=C(NC[C@]1(O)CO[C@H](CNC(=O)c2ccccc2Cl)[C@H]1O)c1ccc(Cl)cc1", "values": [{"measurement": "MIC", "setting": "Staphylococcus aureus [1]", "value": "> 500", "unit": "µM"}, {"measurement": "inhibition", "setting": "[2]", "value": 39, "unit": "%"}, {"measurement": "inhibition", "setting": "[3]", "value": 43, "unit": "%"}]}
{"smiles": "O=C(NC[C@]1(O)CO[C@H](CNC(=O)c2ccccc2Cl)[C@H]1O)c1ccccc1", "values": [{"measurement": "MIC", "setting": "Staphylococcus aureus [1]", "value": "> 500", "unit": "µM"}, {"measurement": "inhibition", "setting": "[2]", "value": 85, "unit": "%"}, {"measurement": "inhibition", "setting": "[3]", "value": 80, "unit": "%"}]}
